Experimental data reported in patent EP4470536A1, “COMPOUND FOR USE IN TREATING FIBRODYSPLASIA OSSIFICANS PROGRESSIVA (FOP)” (Queen's University At Kingston, priority 2023, dated 2024).

How the values were obtained:
[1] = tested on: ectopic bone formation; test: Surgical mouse model of heterotopic ossification (rhBMP2-soaked collagen disk), micro-CT; type: in vivo, CD-1 mouse; conditions: for Mean bone volume (mm^3) / percent change in HO volume from vehicle mean (%): oral gavage, 13 days, Day 14
Method: Heterotopic ossification (HO) driven by Bone Morphogenetic Protein (BMP) signaling has been used as a surrogate model for testing the effectiveness of drugs for treating Fibrodysplasia Ossificans Progressiva (FOP) (see, for example, Shimono K., et al. (2011). Nat Med 17, 454-460.). Collagen disks of 1mm in diameter were punched from a thin collagen foam matrix (Avitene™ Ultrafoam™ Collagen Hemostat product #1050050 lot #WBDP0038, from BD, Franklin Lakes, NJ, USA). Disks were impregnated with 1µg total of recombinant human BMP-2 (GenScript, Piscataway, NJ, USA, catalog #Z02913, lot #P50031712) on the day of surgery (5µl of 200ng/µL BMP-2, reconstituted in 20mM acetic acid solution). The rhBMP2-soaked collagen disk was surgically implanted into a small pocket made in the left gastrocnemius muscle of a 6-8 week-old male CD-1 mouse. Beginning on the day following surgery, mice were administered varying doses of compound 1 by oral gavage once daily (QD) or twice daily (every 12h; BID) for 13 days. Doses administered were: vehicle (Corn oil, QD (5M) and BID (3M) dosing or 3% DMSO in Corn oil (2M)), compound 1 18 mg/kg BID, 18 mg/kg QD, 6 mg/kg BID, 4.5 mg/kg BID, and 2 mg/kg BID (6M per group). Palovarotene high and low doses were used as comparators (1.76 mg/kg (4M) and 0.88 mg/kg QD (6M)). The palovarotene high and low doses were selected based on a study for palovarotene (Inubushi, T., et al. (2018). "Palovarotene Inhibits Osteochondroma Formation in a Mouse Model of Multiple Hereditary Exostoses." J Bone Miner Res 33(4): 658-666.), using oral treatment of mice. The inventors also verified the dose selection based on pharmacokinetic (PK) data generated in-house for palovarotene IP (intraperitoneal) and PO (oral) treatment by using the doses for IP treatment from Lees-Shepard, J. B., et al. (2018).
At the study endpoint (Day 14: 16-30 hours after final compound treatment) left hindlimbs were removed and submitted to micro-CT (micro-computed tomography) imaging. Using this preclinical surgical model, the amount of resulting ectopic bone formation after 14 days was visualized for each of the treatment groups (Figure 6). The highly enhancing regions seen within the gastrocnemius muscle corresponded to the amount of ectopic bone formation generated at the site of collagen disk implantation, following 14 days of vehicle or drug treatment.
The hindlimbs obtained in Example 6 above were submitted to micro-CT imaging. CT images were acquired using a VECTor^4CT pre-clinical scanner (MILabs B.V., Utrecht, Netherlands) equipped with a cone beam X-ray CT system. Scans were carried out with an acceleration voltage of 50 kVp and an X-ray tube current of 430 µA in accurate focus mode to obtain 3600 projections over a 360° scan. With a 40 ms exposure time per step, the total scan procedure took about 5 minutes with an estimated radiation dose of 3077 mGy. CT images were consequently processed using MILabs reconstruction software implementing a voxel size of 20 µm and a Hann projection filter of 25 µm to generate 3-dimensional CT images. For quantification, CT images were converted to DICOM® files using PMOD 3.9 software (PMOD Technologies Ltd., Zurich, Switzerland) for rendering using RadiAnt DICOM Viewer 4.2 software (Medixant, Poznań, Poland). The region-of-interest for all hindlimbs, reconstructed from DICOM files, was defined by outlining sites of ectopic ossification. Analysis of total ectopic bone volume was conducted via automated processes using the AnalyzePro software with the Bone Microarchitecture Analysis (BMA) add-on (AnalyzeDirect, Overland Park, Kansas). This software generates bone volume measurements from the defined area, as described by Bouxsein et al (2010). Journal of Bone and Mineral Research, 25(7), 1468-1486. Using this preclinical surgical model, the ability of compound 1 to inhibit HO (percentage from vehicle), as compared to palovarotene, was assessed and is shown in Figure 7 and in Table 1 below.

[2] = target: T1, CYP26A1 (Homo sapiens, UniProt O43174); test: HeLa cell-based inhibitor assay (HeLa-CYP26A1), inhibition of all trans-RA metabolism; conditions: CYP26A1 cells, highest concentration tested (10 µM), Figure 2, read-out: percentage inhibition
T1 construct: expressed in transfected cells; host or cells: HeLa (stably transfected, hygromycin selection)
T1 sequence (O43174 1-497): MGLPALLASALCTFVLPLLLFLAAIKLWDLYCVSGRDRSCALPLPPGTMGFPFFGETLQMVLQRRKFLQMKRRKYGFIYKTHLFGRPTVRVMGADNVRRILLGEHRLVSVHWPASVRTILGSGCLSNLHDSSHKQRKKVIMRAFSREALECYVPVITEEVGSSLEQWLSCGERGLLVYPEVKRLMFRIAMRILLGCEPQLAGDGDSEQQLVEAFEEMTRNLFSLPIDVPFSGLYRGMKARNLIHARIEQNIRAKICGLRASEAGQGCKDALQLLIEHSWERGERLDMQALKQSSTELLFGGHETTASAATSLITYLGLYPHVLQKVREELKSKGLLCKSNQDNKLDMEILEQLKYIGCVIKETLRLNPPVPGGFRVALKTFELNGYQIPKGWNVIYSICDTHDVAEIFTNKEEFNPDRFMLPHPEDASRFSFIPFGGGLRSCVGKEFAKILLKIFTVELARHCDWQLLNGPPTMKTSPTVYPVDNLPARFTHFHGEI
Method: CYP26A1 or CYP26B1 cDNA stably transfected HeLa cells were maintained in Minimum Essential Medium (MEM) containing 10% fetal bovine serum (FBS), 1X antibiotic/antimycotic cocktail, and […] hygromycin. Exponentially growing cells were harvested by incubation in trypsin. Cells were then collected and re-plated in 48-well culture plates at 1.5×10^5 (CYP26A1) or 1.5×10^4 (CYP26B1) cells in 0.2 mL of culture medium containing 0.04µCi [^3H]-RA (retinoic acid) in the presence or absence of increasing concentrations of a test compound. The test compound was diluted in dimethyl sulfoxide (DMSO) and then added in duplicate to wells to 0.01 nM, 0.1 nM, 1 nM, 10 nM, 100 nM, 1 µM, and 10 µM final concentrations. Cells were incubated for 3 hours at 37 °C. Retinoids were then extracted using the procedure of Bligh, et al., (1959), Canadian Journal of Biochemistry 37, 911-917, which was modified by using dichloromethane instead of chloroform. Each sample's water-soluble radioactivity level was quantified using a β-scintillation counter (using Ecolume scintillation fluid, available from MP Biomedicals of Solon, OH, USA). IC50 values represented the concentration of inhibitor required to inhibit all trans-RA metabolism by 50%, and were derived from log transformed data.

`CC(C)(C)c1cccc(-c2cc3cc(/C=C/C(=O)O)ccc3[nH]2)c1` [Compound 1, (E)-3-(2-(3-(tert-butyl)phenyl)-1H-indol-5-yl)acrylic acid] was tested, and the “Mean bone volume (mm^3)” value ([1]; 2mg/kg BID) was 0.920 mm^3, the “percent change in HO volume from vehicle mean (%)” value (“percent change in HO volume … (%)” below) ([1]; 2mg/kg BID) was -52.5% and the “Mean bone volume (mm^3)” value ([1]; 4.5mg/kg BID) was 1.205 mm^3. For the same compound, the “percent change in HO volume … (%)” value ([1]; 4.5mg/kg BID) was -37.8%, the “Mean bone volume (mm^3)” value ([1]; 6mg/kg BID) was 0.212 mm^3 and the “percent change in HO volume … (%)” value ([1]; 6mg/kg BID) was -89.1%. The “Mean bone volume (mm^3)” value ([1]; 18mg/kg BID) was 0.035 mm^3, the “percent change in HO volume … (%)” value ([1]; 18mg/kg BID) was -98.2% and the “Mean bone volume (mm^3)” value ([1]; 18mg/kg QD) was 0.436 mm^3. The “percent change in HO volume … (%)” value ([1]; 18mg/kg QD) was -77.5%, the ectopic bone formation ([1]; 2 to 18 mg/kg, versus vehicle, 14 days) was “dose-dependent decrease in ectopic bone formation” and the inhibition at 10 µM [2] was 33%.
